Assay results reported in patent US20240108634A1, “COMPOSITIONS AND METHODS FOR INHIBITING YAP” (The United States Government as represented by the …, priority 2021, published 2024).

What was measured:
[1] = target: T1, YAP1 (residues 50-171) / TEAD1 (residues 194-411) association (Homo sapiens, UniProt P46937); assay: In vitro GST pull-down of His-tagged YAP1 with GST-TEAD1; format: binding; settings: concentration-dependent
T1 construct: His; made in house
Experimental: FIGS. 1A-G show the identification of a YAP1-TEAD1 binding interface inhibitor. […] The Gal4 DBD was fused to residues 50-171 of human YAP1 and the Gal4 AD was fused to residues 194-411 of human TEAD1. These fusions were expressed in yeast containing reporters harboring Gal4 upstream activating sequences (UAS). […] Yeast expressing either p53-DBD and SV40 large T antigen-AD fusions or YAP1-DBD and TEAD1-AD fusions were plated on selective media. Compounds were pinned onto the plate surfaces by robotic transfer and subsequently examined for halo formation (indicated by red circles). […] Pull-down products were analyzed by SDS-PAGE and silver staining. […] Raw binding sensorgrams obtained at each concentration were fitted to a 1:1 binding model and Kon, Koff and KD were calculated by simultaneous non-linear regression analyses.
Results. […] To examine the mechanism by which NSC682769 inhibits YAP, the ability of full-length human YAP1 to bind to NSC682769 cross-linked affinity beads prepared using a photo-cross-linking procedure (Holmes B, et al. (2016) J Biol Chem 291: 14146-14159) was determined. Recombinant YAP was incubated with control, IRES-J007 (negative control), or NSC682769-coupled beads and binding analyzed by immunoblotting for YAP (FIG. 1F). […]

CTGF & Cyr61 expression = assay: Real time RT-PCR of YAP-target genes CTGF and Cyr61 in GBM cells; format: cell-based, human; settings: LN229 and GBM39 cells, 18 h
Experimental: Levels of total YAP were determined via ELISA. […] Immunoprecipitates were immunoblotted for the indicated proteins. […] Cells were treated with the indicated concentrations of inhibitor for 18 h and mRNA extracted for real time RT-PCR analyses. Measurements were performed in quadruplicate and means and+S.D. are shown. […] Cells were treated with (+) or without (−) NSC682769 (100 nM, 18 h) and harvested and separated into cytoplasmic and nuclear cellular fractions. Cytoplasmic versus nuclear material was subsequently immunoblotted for the indicated proteins. […] Values in top right corner of panels correspond to the percentage of nuclear localized YAP. […]
Protein and mRNA analyses, immunoprecipitation, in vitro bead-coupled inhibitor binding assays and HPLC analyses. […] Antigen-antibody complexes were detected using appropriate horseradish peroxidase-conjugated secondary antibodies (GE Healthcare) and enhanced chemiluminescence (Amersham ECL Prime). […] For quantitative RT-PCR, extraction of RNA was performed using Trizol® (Life Technologies). Total RNA was then quantified and integrity assessed using an Agilent 2100 Bioanalyzer (Agilent Technology). […] SYBR® Green quantitative PCR (Millipore Sigma) was performed in triplicate in 96-well optical plates on an ABI Prism 7000 Sequence Detection System (Life Technologies) according to the manufacturer's instructions. […]

T1 sequence (P46937 50-171): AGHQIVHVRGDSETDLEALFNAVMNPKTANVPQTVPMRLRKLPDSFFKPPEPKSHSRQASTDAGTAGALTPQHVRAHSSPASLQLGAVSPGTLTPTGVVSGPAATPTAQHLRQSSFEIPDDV

## COc1ccc(-c2cc(-c3ccccc3)nc3c2CC(=O)Nc2ccccc2-3)cc1OC [NSC682769]
[1]
  Inhibition of His-tagged YAP1 and GST-TEAD1 association: marked inhibition
CTGF & Cyr61 expression
  CTGF and Cyr61 transcripts: downregulated
